The source of these data is article PMC8876603, “New Blood Coagulation Factor XIIa Inhibitors: Molecular Modeling, Synthesis, and Experimental Confirmation” (Molecules, 2022).

In assay [1] the target is T1, factor XIIa (Homo sapiens, UniProt P00748). As to conditions: read-out: IC50 factor XIIa (aminotriazole-based inhibitors); cited from earlier work.
The target of another assay is factor Xa (Homo sapiens, UniProt P00742). The assay can be described thus: Inhibition of factor Xa: cleavage rate of specific substrate S2765. The note with it: >30 = no activity at 30 µM, IC50 not measured. Format: biochemical. Here is the method:
(§1) The inhibition of factor XIIa by the synthesized compounds was studied by measuring the kinetics of hydrolysis of specific substrate S2302 (Chromogenics, Italy) in the presence of these compounds. A buffer containing 140 mM NaCl, 20 mM HEPES and 0.1% PEG 6000 (pH 7.4) was placed in the wells of a 96-well plate, followed by the addition of factor XIIa (final concentration 5 nM), solution of the test compound in DMSO (final concentration 30 μM), and substrate S2302 (Chromogenics, Italy) (final concentration 200 μM). The DMSO content in the well was no more than 2%. The kinetics of the formation of pNa were measured using a THERMOmax Microplate Reader (Molecular Devices Corporation, USA) by the absorption of light with a wavelength of 405 nm. The initial rate of substrate degradation was determined from the initial slope of the pNa formation curve. The rate of substrate degradation by the enzyme in the presence of the inhibitor was expressed as a percentage relative to the rate of substrate degradation in the absence of the inhibitor. The data obtained were processed using the GraphPad Prism and OriginPro 8 software. Ratio of specific substrate cleavage (S2302 for factor XIIa and S2765 for factor Xa) rate in presence of different inhibitor concentrations to these and the cleavage rate without inhibitor were determined to calculate IC50 values. Received curves (see Figures S18–S22) were approximated with the assumption that these were competitive inhibitors.
(§2) Figure 5 Structures of four identified inhibitors of the coagulation factor XIIa. IC50 values are shown for three coagulation factors: Xa, XIa, and XIIa. […] So, they are marked with ‘>30’ in a column with activity values. TEXT PRINTED IN THE PICTURE: 30901: IC50, μM: XIIa 19.67±1.31; IC50, μM: XIa > 30.00; IC50, μM: Xa 12.40±0.38 | 41453: IC50, μM: XIIa 25.88±1.77; IC50, μM: XIa > 30.00; IC50, μM: Xa > 30.00 | 225006: IC50, μM: XIIa 7.85±0.34; IC50, μM: XIa > 30.00; IC50, μM: Xa > 30.00 | 225738: IC50, μM: XIIa 12.95±0.32; IC50, μM: XIa > 30.00; IC50, μM: Xa > 30.00

In the next assay the target is factor XIa (Homo sapiens, UniProt P03951). Briefly: Inhibition of factor XIa (off-target selectivity testing). Type of assay: biochemical. As to conditions: >30 = no activity at 30 µM, IC50 not measured. Here is the method: At the first stage, virtual screening based on docking was carried out by the SOL program and the subsequent calculation of the enthalpy of protein–ligand binding by the PM7+COSMO method for the focused library of compounds selected from the database of druglike substances of the Department of Organic Chemistry of the Voronezh State University (VSU). This library consisted of 59 compounds, which were all previously tested against coagulation factors Xa and XIa. Among them, there were a few confirmed inhibitors of these proteins with micromolar activity. The presence of inhibition data for these off-targets allowed us to use selectivity data after the screening phase and better understand the quality of the identified hit series. Screening and testing the selected compounds from the focused library also helped clarify the threshold values of the scoring function of the SOL program, the binding enthalpy and, accordingly, adjust the screening process for further iterations.Virtual screening with the SOL program was carried out for 326 three-dimensional molecules. The original base of 59 ligands was expanded taking into account a few protomers, isomers, and conformers of these molecules. At the first stage, the selection of compounds was carried out based on the SOL scoring function. […] Note that the SOL scoring value for the docking of the original ligand (PDB ID 6B74) was −5.19 kcal/mol. Thus, the selection criterion covered a wider range of scoring values.
factor XIa, sequence (P03951 388-625 limits assumed): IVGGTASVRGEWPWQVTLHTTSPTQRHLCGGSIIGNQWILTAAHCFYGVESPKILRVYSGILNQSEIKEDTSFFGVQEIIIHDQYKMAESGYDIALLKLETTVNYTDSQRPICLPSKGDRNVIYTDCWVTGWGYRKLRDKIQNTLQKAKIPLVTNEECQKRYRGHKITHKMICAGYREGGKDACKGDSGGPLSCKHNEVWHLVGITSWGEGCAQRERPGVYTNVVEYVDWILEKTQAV
factor XIa, sequence (P03951 19-387 partner limits assumed): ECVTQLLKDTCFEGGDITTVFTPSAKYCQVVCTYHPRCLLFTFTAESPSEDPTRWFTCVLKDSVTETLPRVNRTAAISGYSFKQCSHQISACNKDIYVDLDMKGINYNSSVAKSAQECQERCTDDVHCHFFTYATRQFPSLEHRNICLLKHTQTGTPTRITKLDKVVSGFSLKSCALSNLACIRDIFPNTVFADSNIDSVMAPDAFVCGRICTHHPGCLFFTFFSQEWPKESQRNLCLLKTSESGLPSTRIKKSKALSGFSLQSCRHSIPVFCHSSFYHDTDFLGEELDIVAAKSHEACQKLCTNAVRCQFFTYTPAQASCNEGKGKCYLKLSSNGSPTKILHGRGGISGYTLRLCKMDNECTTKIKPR
as §2

For assay [2], the target named is T1, factor XIIa. The assay can be described thus: Inhibition of factor XIIa: kinetics of hydrolysis of chromogenic substrate S2302. Type of assay: biochemical. The note with it: for IC50: substrate S2302, competitive inhibitor fit; for inhibition at 30 µM: read-out: Inhibition Activity at 30 µM, %; for Selectivity for factor XIIa over coagulation factors Xa and XIa: from IC50 values of Figure 5. The protocol:
as §1

Setting [3] is: % of enzyme inhibition at 30 µM, averaged over three measurements.

Several values for one entry are separate records, joined by “and”; a condition that tells them apart may be missing. Equal values may be shown once. Read-outs that look alike come from different tables or passages of the source.

factor Xa, sequence (P00742 235-488 limits assumed): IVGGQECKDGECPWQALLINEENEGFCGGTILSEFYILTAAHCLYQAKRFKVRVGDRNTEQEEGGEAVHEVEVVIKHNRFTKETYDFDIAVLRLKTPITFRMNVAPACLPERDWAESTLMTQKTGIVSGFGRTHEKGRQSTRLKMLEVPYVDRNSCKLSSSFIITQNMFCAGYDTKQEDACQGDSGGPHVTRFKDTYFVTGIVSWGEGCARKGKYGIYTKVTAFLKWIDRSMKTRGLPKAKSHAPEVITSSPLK
factor Xa, sequence (P00742 41-179 partner limits assumed): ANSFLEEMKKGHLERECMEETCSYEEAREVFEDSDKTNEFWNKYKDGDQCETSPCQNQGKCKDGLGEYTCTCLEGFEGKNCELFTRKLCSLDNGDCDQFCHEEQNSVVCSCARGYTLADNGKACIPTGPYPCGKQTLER
T1 sequence (P00748 373-615 limits assumed, other chains not shown): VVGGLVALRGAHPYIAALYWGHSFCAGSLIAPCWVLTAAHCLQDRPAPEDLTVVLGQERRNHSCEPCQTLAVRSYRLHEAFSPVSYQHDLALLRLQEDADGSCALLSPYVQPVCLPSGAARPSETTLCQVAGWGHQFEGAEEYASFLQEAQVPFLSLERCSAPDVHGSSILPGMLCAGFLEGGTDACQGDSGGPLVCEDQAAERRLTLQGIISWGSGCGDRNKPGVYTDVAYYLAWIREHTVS

For the compound `Nc1nc(-c2cnc3ccccc3n2)nn1C(=O)c1cccc2ccccc12` [aminotriazole_39b], at factor XIIa [1], the IC50 (in general, the concentration needed to halve the response being measured) was 0.007 µM.
For the compound `COc1cc2c3c(c1)C1(C(=O)N3C(C)(C)CC2C)C(C#N)=C(N)Oc2c1c(=O)oc1ccccc21` (centres unmarked) [compound 30901, 2-amino-8’-methoxy-4’,4’,6’-trimethyl-2’,5-dioxo-5’,6’-dihydro-2’H,4’H,5H-spiro[pyrano[3,2-c]chromene-4,1’-pyrrolo[3,2,1-ij]quinoline]-3-carbonitrile], the figures for the IC50 against factor Xa, at factor XIa and at factor XIIa [2] were 12.4 ± 0.38 µM, above 30 µM and 19.7 ± 1.31 µM, respectively.
In the case of `CCc1cc2c3c(c1)C1(C(=O)N3C(C)(C)CC2C)C(C#N)=C(N)Oc2c1c(=O)[nH]c1ccccc21` (centres unmarked) [compound 38292, 2-Amino-8’-ethyl-4’,4’,6’-trimethyl-2’,5-dioxo-5,5’,6,6’-tetrahydro-4’H-spiro[pyrano[3,2-c]quinoline-4,1’-pyrrolo[3,2,1-ij]quinoline]-3-carbonitrile], on factor XIIa [2] (setting [3]), the inhibition (usually the relative decrease from the control value, in per cent) at 30 µM worked out at 10%.
In the case of `COc1ccc(C2C(C#N)=C(N)Oc3c2c(=O)[nH]c2ccccc32)cc1OC` (centres unmarked) [compound 38756, 2-Amino-4-(3,4-dimethoxyphenyl)-5-oxo-5,6-dihydro-4H-pyrano[3,2-c]quinoline-3-carbonitrile], the inhibition at 30 µM on factor XIIa [2] (setting [3]) amounted to 15%.
Take `CC1(C)CC2(CCCCC2)N2C(=O)C3(NCCc4c3[nH]c3ccccc43)c3cccc1c32` (stereo not drawn) [compound 41453, 6’,6’-Dimethyl-2,3,4,5’,6’,9-hexahydrodispiro[β-carboline-1,1’-pyrrolo[3,2,1-ij]quinoline-4’,1’’-cyclohexan]-2’-one]: the IC50 at factor Xa was above 30 µM; against factor XIa, above 30 µM; at factor XIIa [2], ~26 µM and 25.9 µM. On factor XIIa [2], the “Selectivity for factor XIIa over coagulation factors Xa and XIa” value (“Selectivity for factor XIIa” for short) is recorded as “questionable”.
As to `CC1CCc2nc3oc(-c4ccccc4)cc3c(N)c2C1` (centres unmarked) [compound 224530, 6-Methyl-2-phenyl-5,6,7,8-tetrahydrofuro[2,3-b]quinolin-4-amine], the inhibition at 30 µM on factor XIIa [2] (setting [3]) was 0%.
Take `Nc1c2c(nc3oc(-c4ccccc4Cl)cc13)CCCC2=O` [compound 224533, 4-Amino-2-(2-chlorophenyl)-7,8-dihydrofuro[2,3-b]quinolin-5(6H)-one]: at factor XIIa [2], the inhibition at 30 µM turned out to be 2%.
With `COc1ccc(C(=O)c2cc3cc4c(cc3oc2=O)N(C)C(C)(C)CC4C)cc1` (centres unmarked) [compound 224870, 3-(4-Methoxybenzoyl)-6,8,8,9-tetramethyl-6,7,8,9-tetrahydro-2H-pyrano[3,2-g]quinolin-2-one], the inhibition at 30 µM on factor XIIa [2] (setting [3]) is 0%.
For `CC1CC(C)(C)N(C)c2cc3oc(=O)c(-c4cc(=O)[nH]c(N5CCOCC5)n4)cc3cc21` (centres unmarked) [compound 225006, 6,8,8,9-Tetramethyl-3-(2-morpholin-4-yl-6-oxo-1,6-dihydropyrimidin-4-yl)-6,7,8,9-tetrahydro-2H-pyrano[3,2-g]quinolin-2-one], the IC50 against factor Xa was above 30 µM; on factor XIa, above 30 µM; at factor XIIa [2], 7.9 µM and 7.85 µM. Also, the inhibition at 30 µM on factor XIIa [2] (setting [3]) is above 50%. Besides, at factor XIIa [2], the “Selectivity for factor XIIa” value is on record as “selectively inhibit”.
In the case of `COc1cc2c3c(c1)C(=NNC(=N)N)C(=O)N3C(C)(C)C=C2C` [compound 225635, 2-(8-Methoxy-4,4,6-trimethyl-2-oxo-4H-pyrrolo[3,2,1-ij]quinolin-1(2H)-ylidene)hydrazinecarboximidamide], the inhibition at 30 µM at factor XIIa [2] (setting [3]) turned out to be 0%.
As for `COc1cc2c3c(c1)C(=NNC(=N)N)C(=O)N3C(C)(C)C=C2CN1CCN(c2ccc(F)cc2)CC1` [compound 225638, 2-[6-{[4-(4-Fluorophenyl)piperazin-1-yl]methyl}-8-methoxy-4,4-dimethyl-2-oxo-4H-pyrrolo[3,2,1-ij]quinolin-1(2H)-ylidene]hydrazinecarboximidamide], the inhibition at 30 µM on factor XIIa [2] (setting [3]) is 27%.
As for `COC(=O)c1c(C)[nH]c(-c2ccccc2)c1C1C(=O)N2c3c(cc(OC)cc31)C(C)=CC2(C)C` (centres unmarked) [compound 225738, methyl 4-(8-methoxy-4,4,6-trimethyl-2-oxo-1,2-dihydro-4H-pyrrolo[3,2,1-ij]quinolin-1-yl)-2-methyl-5-phenyl-1H-pyrrole-3-carboxylate], the half-maximal inhibitory concentration (IC50) against factor Xa was above 30 µM; on factor XIa, above 30 µM; on factor XIIa [2], 13 ± 0.32 µM. In addition, the inhibition at 30 µM at factor XIIa [2] (setting [3]) is above 50%. At factor XIIa [2], the “Selectivity for factor XIIa” value is recorded as “selectively inhibit”.
On to `COc1cc2c3c(c1)/C(=N/OC(=O)c1ccccc1)C(=O)N3C(C)(C)C=C2C` [compound 225746, 8-Methoxy-4,4,6-trimethyl-4H-pyrrolo[3,2,1-ij]quinoline-1,2-dione1-(O-benzoyloxime)], for which, on factor XIIa [2] (setting [3]), the inhibition at 30 µM amounted to 0%.
